Test results taken from ChEMBL document CHEMBL1201862, “PubChem BioAssay data set” (2004).
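48-hour exposure; five concentrations; linearly interpolated endpoints. Here, GI50 denotes the concentration required for 50% inhibition of growth.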 Activity calls are given as the source filed them. No stated cut-off is given here; in the data, active = GI50 up to about 1.1 µM and inactive = higher.

Legend:
Experiment in all cases: NCI-60 cell line screen, 48 h
[1] = test system: NCI-H226
[2] = test system: Malme-3M
[3] = test system: HT-29
[4] = test system: OVCAR-5
[5] = test system: A498
[6] = test system: SNB-75
[7] = test system: SNB-19
[8] = test system: HOP-92
[9] = test system: SK-MEL-5
[10] = test system: SR
[11] = test system: 786-0
[12] = test system: U-251
[13] = test system: HL-60
[14] = test system: HOP-62
[15] = test system: UACC-257
[16] = test system: SF-539
[17] = test system: CAKI-1
[18] = test system: SK-OV-3
[19] = test system: SN12C
[20] = test system: NCI-H522

Compound	GI50 [1]	GI50 [2]	GI50 [3]	GI50 [4]	GI50 [5]	GI50 [6]	GI50 [7]	GI50 [8]	GI50 [9]	GI50 [10]	GI50 [11]	GI50 [12]	GI50 [13]	GI50 [14]	GI50 [15]	GI50 [16]	GI50 [17]	GI50 [18]	GI50 [19]	GI50 [20]
CN(Cc1cc(Cl)cc(Cl)c1O)Cc1c(O)ccc2ccccc12	20.6 µM (inactive)	14.9 µM (inactive)	27.9 µM (inactive)	23.1 µM (inactive)	17.1 µM (inactive)	16.7 µM (inactive)	19.8 µM (inactive)	20.1 µM (inactive)	17.5 µM (inactive)	23.8 µM (inactive)	21 µM (inactive)	16.3 µM (inactive)	25.4 µM (inactive)	18.1 µM (inactive)	18.2 µM (inactive)	20.9 µM (inactive)	18.3 µM (inactive)	18.2 µM (inactive)	21.2 µM (inactive)	15 µM (inactive)
O=C1c2ccccc2C(=O)N1CCCSc1ccccc1	> 100 µM (inactive)	> 100 µM (inactive)	31.2 µM (inactive)	> 100 µM (inactive)	33 µM (inactive)	64.7 µM (inactive)	> 100 µM (inactive)	> 100 µM (inactive)	32.7 µM (inactive)	31.8 µM (inactive)	> 100 µM (inactive)	91.4 µM (inactive)	75.7 µM (inactive)	> 100 µM (inactive)	39.7 µM (inactive)	> 100 µM (inactive)	93.1 µM (inactive)	> 100 µM (inactive)	71.3 µM (inactive)	66.8 µM (inactive)
CN(C)c1ccc(/C(F)=C(F)/C(F)=C(F)/C(F)=C(\F)c2ccc(Br)cc2)cc1	50 µM (inactive)	9.29 µM (inactive)	27.5 µM (inactive)	23.8 µM (inactive)	16.7 µM (inactive)	27.2 µM (inactive)	23.7 µM (inactive)	47.6 µM (inactive)	25.3 µM (inactive)	5 µM (inactive)	3.92 µM (inactive)	17.5 µM (inactive)	8.97 µM (inactive)	37.2 µM (inactive)	> 74.1 µM (inactive)	33 µM (inactive)	18.7 µM (inactive)	30.1 µM (inactive)	6.61 µM (inactive)	7.46 µM (inactive)
Cc1[nH]c2ccccc2c1C1Cc2ccccc2N1C(=O)/C(Cl)=C/c1ccccc1 (stereo not given)	> 69 µM (inactive)	> 86.3 µM (inactive)	> 100 µM (inactive)	> 100 µM (inactive)	> 78.2 µM (inactive)	4.65 µM (inactive)	> 100 µM (inactive)	> 100 µM (inactive)	> 100 µM (inactive)	29.2 µM (inactive)	> 100 µM (inactive)	> 100 µM (inactive)	98.2 µM (inactive)	> 100 µM (inactive)	> 100 µM (inactive)	40.9 µM (inactive)	50.6 µM (inactive)	> 100 µM (inactive)	> 100 µM (inactive)	> 100 µM (inactive)
COC(=O)CC1C(C)(C)C(=O)C2CC3=C4CC(=O)OC(c5ccoc5)C4(C)CCC3C1(C)C2=O (stereo not given)	> 100 µM (inactive)	> 100 µM (inactive)	> 100 µM (inactive)	> 100 µM (inactive)	> 100 µM (inactive)	> 100 µM (inactive)	> 100 µM (inactive)	> 100 µM (inactive)	> 100 µM (inactive)	> 100 µM (inactive)	> 100 µM (inactive)	> 100 µM (inactive)	44.4 µM (inactive)	> 100 µM (inactive)	> 100 µM (inactive)	> 100 µM (inactive)	> 100 µM (inactive)	> 100 µM (inactive)	> 100 µM (inactive)	> 100 µM (inactive)
COc1ccc2c3c1O[C@H](c1ccc(O)cc1)[C@H]3[N+](C)(C)CC2	> 100 µM (inactive)	> 100 µM (inactive)	> 100 µM (inactive)	> 100 µM (inactive)	> 100 µM (inactive)	> 100 µM (inactive)	49.2 µM (inactive)	> 100 µM (inactive)	86.3 µM (inactive)	> 100 µM (inactive)	> 100 µM (inactive)	> 100 µM (inactive)	34.3 µM (inactive)	> 100 µM (inactive)	> 100 µM (inactive)	> 100 µM (inactive)	> 100 µM (inactive)	> 100 µM (inactive)	> 100 µM (inactive)	42.8 µM (inactive)
CCCCCCCCCCCCCCCCCCNc1ccn(C2OC(CO)C(O)C2O)c(=O)n1 (stereo not given)	> 100 µM (inactive)	> 100 µM (inactive)	> 95.5 µM (inactive)	> 100 µM (inactive)	> 100 µM (inactive)	29.9 µM (inactive)	> 25.4 µM (inactive)	> 100 µM (inactive)	> 100 µM (inactive)	23.7 µM (inactive)	> 100 µM (inactive)	38.6 µM (inactive)	2.49 µM (inactive)	> 100 µM (inactive)	> 100 µM (inactive)	> 100 µM (inactive)	> 100 µM (inactive)	> 100 µM (inactive)	> 100 µM (inactive)	19.8 µM (inactive)
CCCCOc1ccc(/C=C/C2=[N+](CCO)CCO2)cc1	27.2 µM (inactive)	80 µM (inactive)	17.6 µM (inactive)	> 100 µM (inactive)	> 100 µM (inactive)	67.1 µM (inactive)	> 100 µM (inactive)	44.3 µM (inactive)	68.5 µM (inactive)	38 µM (inactive)	54.1 µM (inactive)	34.4 µM (inactive)	21.7 µM (inactive)	> 100 µM (inactive)	> 100 µM (inactive)	21.7 µM (inactive)	67.5 µM (inactive)	> 100 µM (inactive)	97.3 µM (inactive)	21.5 µM (inactive)
Cc1cc(Nc2ccc(/N=N/c3ccc(O)c4ncccc34)cc2)nc(C)n1	18.3 µM (inactive)	18.6 µM (inactive)	31.2 µM (inactive)	35.2 µM (inactive)	21.6 µM (inactive)	9.35 µM (inactive)	8.53 µM (inactive)	9.75 µM (inactive)	10.8 µM (inactive)	6.34 µM (inactive)	12.6 µM (inactive)	8.13 µM (inactive)	3.97 µM (inactive)	15.9 µM (inactive)	16.6 µM (inactive)	3.99 µM (inactive)	25.7 µM (inactive)	23.9 µM (inactive)	10.4 µM (inactive)	10.7 µM (inactive)
CC(C)(C)OC(=O)N1Cc2cc(O)ccc2C[C@H]1C(=O)O	> 100 µM (inactive)	> 100 µM (inactive)	> 100 µM (inactive)	> 100 µM (inactive)	> 100 µM (inactive)	> 100 µM (inactive)	> 100 µM (inactive)	> 100 µM (inactive)	> 100 µM (inactive)	> 100 µM (inactive)	> 100 µM (inactive)	> 100 µM (inactive)	0.137 µM (active)	> 100 µM (inactive)	> 100 µM (inactive)	> 100 µM (inactive)	> 100 µM (inactive)	> 100 µM (inactive)	> 100 µM (inactive)	> 100 µM (inactive)
C/C=C/C=C/C1=NN(c2cccc(S(=O)(=O)O)c2)C2(C1)C(Cl)C(=O)N2c1nc2ccccc2s1 (stereo not given)	14.3 µM (inactive)	17.1 µM (inactive)	17 µM (inactive)	17.4 µM (inactive)	16.3 µM (inactive)	12.4 µM (inactive)	15.2 µM (inactive)	24.5 µM (inactive)	12.2 µM (inactive)	18.9 µM (inactive)	13.8 µM (inactive)	9.55 µM (inactive)	15.6 µM (inactive)	14.7 µM (inactive)	15.4 µM (inactive)	12.6 µM (inactive)	8.24 µM (inactive)	19.2 µM (inactive)	14.9 µM (inactive)	4.22 µM (inactive)
COc1ccc(S(=O)(=O)n2c3c(c4ccccc42)[C@@H]2[C@@H](CCCN2C(=O)C[S+]([O-])c2ccc(C)cc2)[C@H](Cl)C3)cc1 (stereo not given in full)	> 100 µM (inactive)	> 100 µM (inactive)	> 100 µM (inactive)	> 100 µM (inactive)	> 100 µM (inactive)	> 100 µM (inactive)	> 100 µM (inactive)	> 100 µM (inactive)	> 100 µM (inactive)	> 100 µM (inactive)	> 100 µM (inactive)	> 100 µM (inactive)	99.8 µM (inactive)	> 100 µM (inactive)	> 100 µM (inactive)	> 100 µM (inactive)	> 100 µM (inactive)	> 100 µM (inactive)	> 100 µM (inactive)	> 100 µM (inactive)
COc1ccc(/C=C(/C(=O)c2ccc(Cl)cc2)N2C=CC=CC2=C(C#N)C#N)cc1OC	17.8 µM (inactive)	0.914 µM (active)	5.01 µM (inactive)	16.2 µM (inactive)	14.9 µM (inactive)	6.62 µM (inactive)	15.1 µM (inactive)	3.51 µM (inactive)	9.25 µM (inactive)	2.35 µM (inactive)	1.94 µM (inactive)	12.1 µM (inactive)	2.37 µM (inactive)	20.5 µM (inactive)	6 µM (inactive)	3.92 µM (inactive)	1.31 µM (inactive)	24.4 µM (inactive)	17.4 µM (inactive)	0.243 µM (active)
COC(=O)C1C2OC(C)(C)OC2CN1S(=O)(=O)c1ccc(C)cc1 (stereo not given)	0.0527 µM (active)	> 100 µM (inactive)	> 100 µM (inactive)	> 100 µM (inactive)	> 100 µM (inactive)	10.9 µM (inactive)	> 100 µM (inactive)	> 100 µM (inactive)	> 100 µM (inactive)	> 100 µM (inactive)	> 100 µM (inactive)	> 100 µM (inactive)	> 100 µM (inactive)	> 100 µM (inactive)	> 100 µM (inactive)	> 100 µM (inactive)	> 100 µM (inactive)	> 100 µM (inactive)	> 100 µM (inactive)	> 100 µM (inactive)
